In US20230201236A1, “SPIROCYCLIC NUCLEOSIDE ANALOGUES FOR THE TREATMENT OF HEPATITIS E” (priority 2020, published 2023):
pEC50: −log10 of the molar value.

Columns and labels:
Assay type in all cases: cell-based
[1] = tested on: rat HEV replicon LA-B350/luc; assay: Antiviral activity against rat HEV replicon LA-B350/luc in Huh7 cells (Gaussia luciferase); conditions: Huh-7, 72 h, luminescence after 3 days, two or three experiments
Method: The antiviral activity of compounds was tested against the rat HEV replicon LA-B350/luc as described in Debing et al (Dis Model Mech 2016; 9:1203-10). To this end, Huh7 cells were electroporated with capped viral RNA produced from plasmid pLA-B350/luc, plated in 96-well plates and treated with each of compounds at selected concentrations. For virus control (VC), compound was omitted. After 3 days, luminescence produced by the secreted Gaussia luciferase was quantified using the Promega Renilla luciferase kit and corrected for background with a cell control (CC, viral RNA and compound omitted). The 50% effective concentration (EC50) is defined as the concentration of compound that causes a 50% reduction in the Luc signal compared to that of average corrected VC. The EC50 was based on two or three experiments and derived by a nonlinear regression fit in GraphPad using a two-parameter logistic model while keeping the slope variable.

[2] = Viability evaluation (MTS/PMS) of Huh7 cells transfected with Kernow-C1 p6/luc RNA; conditions: human, highest tested concentration 50 μM, read-out: relative CC50
Method: (§1) For viability evaluation, medium was removed and cells were subsequently incubated with MTS/PMS solution (3-(4,5-dimethylthiazol-2-yl)-5-(3-carboxymethoxyphenyl)-2-(4-sulfophenyl)-2H-tetrazolium/phenazinemethosulfate), which is metabolized to produce a brown, water-soluble product that is quantified after 1 h at 37° C. by absorbance read-out at 498 nm. Obtained values are expressed as percentage of untreated RNA-transfected control condition. The relative CC50 represents the concentration at which the metabolic activity of the cells would be reduced to 50% of the metabolic activity of untreated cells and was based on two or three experiments and derived by a nonlinear regression fit in GraphPad using a four-parameter logistic (4PL) model.

[3] = Viability evaluation (MTS/PMS) of Huh7 cells transfected with the rat HEV replicon; conditions: human, highest tested concentration 50 μM
Method: as §1, with “as […]” for “as percentage”, “The” for “The relative”, “cells (and” for “cells and”, “two” for “two or three”, “a two-parameter” for “a four-parameter”, “logistic model while keeping the slope variable).” for “logistic (4PL) model.”

[4] = tested on: HEV Genotype 3 replicon Kernow-C1 p6/luc; assay: Antiviral activity against HEV Genotype 3 replicon Kernow-C1 p6/luc in Huh7 cells (Gaussia luciferase); conditions: Huh-7, 96 h, luminescence after 4 days, 4PL fit, two experiments, read-out: relative EC50
Method: The antiviral activity of compounds was tested against the HEV Genotype 3 replicon Kernow-C1 p6/luc (Kernow-C1 p6: GenBank accession number JQ679013) as previously described (Debing Y, Emerson S U, Wang Y, Pan Q, Balzarini J, Dallmeier K, Neyts J. 2013. Ribavirin Inhibits In Vitro Hepatitis E Virus Replication through Depletion of Cellular GTP Pools and Is Moderately Synergistic with Alpha Interferon. Antimicrob Agents Chemother, 58:267-273). To this end, Huh7 cells were electroporated with capped in vitro transcribed Kernow-C1 p6/luc-RNA produced from Mlul-digested plasmid DNA (Shukla P, Nguyen H T, Faulk K, Mather K, Torian U, Engle R E, Emerson SU. 2012. Adaptation of a genotype 3 hepatitis E virus to efficient growth in cell culture depends on an inserted human gene segment acquired by recombination. J. Virol. 86:5697-5707), seeded in 96-well plates containing serial dilutions of the test compounds. For virus control (VC) compound was omitted. After 4 days, luminescence produced by the secreted Gaussia luciferase was quantified using the Promega Renilla luciferase kit and corrected for background with a cell control (CC, viral RNA and compound omitted). The relative 50% effective concentration (EC50) is defined as the concentration of compound that causes a 50% reduction in the Luc signal, relative to the signal range. The relative EC50 was based on two experiments and derived by a nonlinear regression fit in GraphPad using a four-parameter logistic (4PL) model.

CC(C)OC(=O)C(C)NP(=O)(OC[C@@]1(N=[N+]=[N-])O[C@@H](n2ccc(=O)[nH]c2=O)[C@@]2(CCS2)[C@@H]1O)Oc1ccccc1 (stereo in doubt) [Compound 1, isopropyl (2R)-2-[[[(4R,5R,6R,8R)-6-azido-8-(2,4-dioxopyrimidin-1-yl)-5-hydroxy-7-oxa-1-thiaspiro[3.4]octan-6-yl]methoxy-phenoxy-phosphoryl]amino]propanoate]
pEC50 [1]: 6.13 | CC50 [2]: > 50 µM | CC50 [3]: > 50 µM | pEC50 [4]: < 4.30

CC(C)OC(=O)[C@H](C)NP(=O)(OC[C@@]1(F)O[C@@H](n2ccc(=O)[nH]c2=O)[C@@]2(CCS2)[C@@H]1O)Oc1ccccc1 (stereo partly drawn) [Compound 2, (2S)-isopropyl 2-(((((4R,5R,7S,8R)-5-(2,4-dioxo-3,4-dihydropyrimidin-1(2H)-yl)-7-fluoro-8-hydroxy-6-oxa-1-thiaspiro[3.4]octan-7-yl)methoxy)(phenoxy)phosphoryl)-amino)propanoate]
pEC50 [1]: 5.23 | CC50 [2]: > 50 µM | CC50 [3]: > 50 µM

CC(C)OC(=O)[C@H](C)NP(=O)(OC[C@H]1O[C@@H](n2ccc(=O)[nH]c2=O)[C@@]2(CCS2)[C@@H]1O)Oc1ccccc1 (stereo partly drawn) [Compound 3, (2S)-isopropyl 2-(((((4R,5R,7R,8R)-5-(2,4-dioxo-3,4-dihydropyrimidin-1(2H)-yl)-8-hydroxy-6-oxa-1-thiaspiro[3.4]octan-7-yl)methoxy)(phenoxy)phosphoryl)amino)propanoate]
pEC50 [1]: 4.57 | CC50 [2]: > 50 µM | CC50 [3]: > 50 µM | pEC50 [4]: < 4.30

COC(=O)C(C)(C)NP(=O)(OC[C@H]1O[C@@H](n2ccc(=O)[nH]c2=O)[C@@]2(CCO2)[C@@H]1O)Oc1ccccc1 (stereo partly drawn) [Compound 4, methyl 2-[[[(4R,5R,7R,8R)-5-(2,4-dioxo-3,4-dihydropyrimidin-1(2H)-yl)-8-hydroxy-1,6-dioxaspiro[3.4]octan-7-yl]methoxy](phenoxy)phosphorylamino]-2-methylpropanoate]
pEC50 [1]: 6.44 | CC50 [2]: > 50 µM | CC50 [3]: > 50 µM | pEC50 [4]: 6.28
